In patent publication US20250171404A1, “PCNA INHIBITORS AND USES THEREOF” (CITY OF HOPE, priority 2022, published 2025):

What was measured:
γH2A.X = γH2A.X Western blot (DNA damage marker); type: cell-based, human; conditions: SK-N-AS; 500 nM AOH1996 and/or 50 μM DRB overnight
OVCAR8 = assay: Cell growth IC50, screening of AOH1160 analogs; type: cell-based; conditions: Homo sapiens, OVCAR-8; OVCAR8; read-out: IC50 values
Experimental: (§1) FIG. 29. IC50 data for select compounds. The indicated cell lines were seeded at 10^4 cells per well in a 96 well plate. After allowing to attach to the plate overnight, cells were treated with various concentrations of the indicated compounds in triplicates for 72 hrs. The cell growth was measured by an SRB assay. The cell abundances under each treatment condition relative to the baseline were averaged and graphed ±S.D. The baseline is defined as the median value of the cell abundances under the treatment by the two lowest compound concentrations. The IC50 was calculated by the Prism program.

RKO = assay: Cell growth IC50, screening of AOH1160 analogs; type: cell-based; conditions: Homo sapiens, read-out: IC50 values
Experimental: as §1

HTC-116 = assay: Cell growth IC50, screening of AOH1160 analogs; type: cell-based; conditions: HTC-116; read-out: IC50 values
Experimental: as §1

PCNA = molecular target: T1, PCNA (Homo sapiens, UniProt P12004); assay: Thermal denaturation (thermal shift) assay; type: binding; conditions: FIG. 24
T1 construct: made in house; host or cells: E. coli Rosetta 2 (DE3)
Experimental: FIGS. 1A-1E. AOH1160 analog interactions with PCNA. FIG. 1A: Thermal shift assay: Normalized inverse derivative thermal denaturation plots of 9 μM apo-PCNA with DMSO control is depicted with a black dashed line and PCNA in the presence of 10 μM AOH1160LE is shown in light grey and 30 μM AOH1160LE in dark grey. ΔTm values are provided. FIG. 1B: As described in FIG. 1A, in the presence of 10 μM AOH1996 depicted in light grey and 30 μM AOH1996 depicted in dark grey. FIG. 1C: Four monomers (chains A-D) of PCNA are present in the asymmetric unit of the crystal. Chains A, B, and C form the homotrimer biological unit, while chain Dis orientated perpendicular to the plane of the ring, below the interface of chains B and C and it belongs to an adjacent ring. Inset: Three molecules of AOH1160LE bind in and adjacent to the PIP box cavity of each of the PCNA ring subunits. The omit map, gray mesh, is contoured to 1.56. Two PCNA monomer subunits from adjacent rings stack against each other, placing the PIP box and IDCLs of each subunit in opposing directions. FIG. 1D: The three AOH1160LE molecules are shown as stick figure representations. Two of the compounds, left and central, bind into the PIP box cavity at known PCNA-partner/compound interaction sites. […] The electrostatic surface maps are depicted with Poisson-Boltzmann electrostatic surface potentials shown in dark grey and light grey, corresponding to −10 to +10 kT/e respectively.
Targeting the PIP box and APIM binding domain of PCNA. AOH1160, a small molecule PCNA ligand, targets the cancer-distinct L126-Y133 region of PCNA (Malkas et al., 2006) and is selectively toxic to cancer cells (Gu et al., 2018). […]
Thermal denaturation assay for PCNA-AOH1996 interaction. […] Fluorescence intensity was measured within the excitation/emission ranges 470-505/540-700 nm.

[1] = Cell growth IC50, screening of AOH1160 analogs (cell line not given); type: cell-based; conditions: read-out: IC50 values
Experimental: as §1

[2] = molecular target: T2, PCNA interaction with RPB1 (Homo sapiens, UniProt P12004); assay: PCNA interaction with RPB1 (immunoprecipitation, western blotting); type: cell-based; conditions: SK-N-AS
T2 construct: expressed in transfected cells; host or cells: SK-N-AS (FLAG-RPB1 exogenous; PCNA endogenous)
Experimental: FIGS. 5A-5E. Modulation of PCNA interaction with RNA polymerase II. FIG. 5A: Chromatin-bound (CB) proteins were fractioned from HEK293T cells expressing FLAG-tagged PCNA after the cells were treated with or without 500 nM AOH1996. Proteins in complex with FLAG-PCNA were immune-precipitated and analyzed by mass spectrometry. Shown are numbers of proteins whose abundances were altered (grey) or unaltered (black) by more than 2-fold by AOH1996 treatment. FIG. 5B: SK-N-AS cells exogenously expressing a FLAG-tagged RPB1 gene were fractioned before and after being treated with 500 nM AOH1996 overnight. PCNA in complex with chromatin-bound (CB) FLAG-RBP1 were analyzed by western blotting. FIG. 5C: Human SK-N-AS cells were treated with UV in the presence or absence of AOH1996 (AOH) or R9-caPep (caPep). Whole cell extracts were analyzed by western blotting. FIG. 5D: Cells exogenously expressing FLAG-tagged wildtype RPB1 or FLAG-tagged APIM-mutant RPB1 gene were fractioned. PCNA in complex with chromatin-bound (CB) FLAG-RBP1 were analyzed by western blotting. FIG. 5E: HEK293T cells were transiently transfected with a FLAG-tagged wildtype RPB1 (APIM WT) gene or mutant RPB1 gene (APIM mutant). The intracellular MCM7 and RBP1 (both the hypo-phosphorylated RNAPIIa and hyper-phosphorylated RNAPIIo forms) were analyzed by western blot after cells were treated by the indicated agents and/or UV.
Modulating PCNA interaction with transcription machinery.
Cell fractionation and immunoprecipitation. Cells were fractionated as previously described (Li et al., 2018). Briefly, intact nuclei isolated following osmotic lysis were homogenized using a 21 G needle. Chromatin was pelleted by centrifugation and incubated overnight at 4° C. with benzonase in two volumes of nuclease buffer (20 mM HEPES pH 7.5, 1.5 mM MgCl2, 1 mM EDTA, 150 mM KCl, 10% glycerol, 0.5 U μl-1 benzonase). The resulting supernatant was collected as the CB fraction. Alternatively, we sequentially incubated the chromatin pellet with RNase A and benzonase and collected the supernatants after each digestion as the CB:RNA+ and CB:RNA− fractions, respectively (Li et al., 2018).

SK-N-AS = assay: Cell growth IC50, screening of AOH1160 analogs; type: cell-based; conditions: Homo sapiens, read-out: IC50 values
Experimental: as §1

SK-N-BE(2)c = assay: Cell growth IC50, screening of AOH1160 analogs; type: cell-based; conditions: Homo sapiens
Experimental: as §1

T1 sequence (P12004 whole entry): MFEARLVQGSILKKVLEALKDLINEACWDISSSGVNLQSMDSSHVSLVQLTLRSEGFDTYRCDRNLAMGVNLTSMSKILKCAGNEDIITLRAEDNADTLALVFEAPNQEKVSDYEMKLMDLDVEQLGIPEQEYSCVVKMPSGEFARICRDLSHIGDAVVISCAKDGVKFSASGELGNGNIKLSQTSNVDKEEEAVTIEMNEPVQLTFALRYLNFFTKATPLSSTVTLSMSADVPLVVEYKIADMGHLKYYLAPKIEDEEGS

OC[C@H]1O[C@@H](n2cnc3cc(Cl)c(Cl)cc32)[C@H](O)[C@@H]1O [DRB, reference compound]
γH2A.X levels, AOH1996 with DRB (γH2A.X): can suppress the DNA damage induced by AOH1996

O=C(CNC(=O)c1cccc2ccccc12)Nc1ccccc1Nc1ccccc1 [AOH1160NH]
IC50 (OVCAR8): > 10 µM | IC50 (RKO): > 10 µM | IC50 (HTC-116): > 10 µM

CC(C)[C@H](NC(=O)c1cccc2ccccc12)C(=O)Nc1ccccc1Oc1ccccc1 [AOH1160LV, (S)—N-(3-methyl-1-oxo-1-((2-phenoxyphenyl)amino)butan-2-yl)-1-naphthamide]
ΔTm (TSA data) (PCNA): very similar ΔTm compared to AOH1996 | IC50 [1]: > 10 µM

NCCCC[C@@H](NC(=O)c1cccc2ccccc12)C(=O)Nc1ccccc1Oc1ccccc1 [AOH1160DK]
IC50 [1]: > 10 µM

O=C(Nc1ccccc1Oc1ccccc1)c1cccc2ccccc12 [AOH1160t]
IC50 [1]: > 10 µM

caPep: contains the L126-Y133 sequence of PCNA that overlaps APIM-interacting region of PCNA (LGIPEQEY; UniProt P12004 126-133, looked up, fragment) [reference compound]
PCNA interaction with RPB1 ([2]; chromatin-bound): blocked PCNA interaction with RPB1 | RPB1 levels ([2]; whole cell extracts): increased RPB1 levels

O=C(CNC(=O)c1cccc2ccccc12)Nc1ccccc1S(=O)(=O)c1ccccc1 [AOH1160SO2, N-(2-oxo-2-((2-(phenylsulfonyl)phenyl)amino)ethyl)-1-naphthamide]
IC50 [1]: > 10 µM

O=C(CNC(=O)c1cccc2ccccc12)Nc1ccccc1Sc1ccc(C(F)(F)F)cc1 [AOH1996S-4CF3, N-(2-oxo-2-((2-((4-(trifluoromethyl)phenyl)thio)phenyl)amino)ethyl)-1-naphthamide]
IC50 (OVCAR8): 3.4 µM | IC50 (RKO): 10 µM | IC50 (HTC-116): 4.6 µM

COc1cccc(Oc2ccccc2NC(=O)CNC(=O)Cc2cccc3ccccc23)c1 [AOH1996eNph, N-(2-(3-methoxyphenoxy)phenyl)-2-(2-(naphthalen-1-yl)acetamido) acetamide]
IC50 [1]: > 10 µM

O=C(CNC(=O)c1nccc2ccccc12)Nc1ccccc1Oc1ccncc1 [AOH1167]
IC50 [1]: 42 µM

COc1cccc(Oc2ccccc2NC(=O)c2cccc3ccccc23)c1 [AOH1996t, N-(2-(3-methoxyphenoxy)phenyl)-1-naphthamide]
IC50 [1]: > 10 µM

COc1cccc(Oc2ccccc2NC(=O)[C@H](CCC(=O)O)NC(=O)c2cccc3ccccc23)c1 [AOH1996LE, (S)-4-(1-naphthamido)-5-((2-(3-methoxyphenoxy)phenyl)amino)-5-oxopentanoic acid]
IC50 [1]: > 10 µM

CC(C)[C@@H](NC(=O)c1cccc2ccccc12)C(=O)Nc1ccccc1Oc1ccccc1 [AOH1160DV, (R)—N-(3-methyl-1-oxo-1-((2-phenoxyphenyl)amino)butan-2-yl)-1-naphthamide]
IC50 [1]: > 10 µM

O=C(CCNC(=O)c1cccc2ccccc12)Nc1ccccc1Oc1ccccc1 [AOH1160e, N-(3-oxo-3-((2-phenoxyphenyl)amino)propyl)-1-naphthamide]
IC50 [1]: > 10 µM

COc1cccc(Oc2ccccc2NC(=O)CNC(=O)c2ccc(-c3ccccc3)cc2)c1 [AOH1996BiNph, N-(2-((2-(3-methoxyphenoxy)phenyl)amino)-2-oxoethyl)-[1,1′-biphenyl]-4-carboxamide]
IC50 [1]: > 10 µM

Cc1ccc(Sc2ccccc2NC(=O)[C@H](CCC(=O)O)NC(=O)c2cccc3ccccc23)cc1 [AOH1996SLE-4CH3, (S)-4-(1-naphthamido)-5-oxo-5-((2-(p-tolylthio)phenyl)amino) pentanoic acid]
IC50 [1]: > 10 µM

Cc1ccc(Sc2ccccc2NC(=O)CNC(=O)c2cccc3ccccc23)cc1 [AOH1996S-4CH3, N-(2-oxo-2-((2-(p-tolylthio)phenyl)amino)ethyl)-1-naphthamide]
IC50 (OVCAR8): 0.291 µM | IC50 (RKO): 0.503 µM | IC50 (HTC-116): 0.345 µM

O=C(CNC(=O)c1cccc2ccccc12)Nc1ccccc1Oc1ccc(O)cc1 [AOH1160-4′-OH]
IC50 (SK-N-AS): 0.156 µM

O=C(O)CC[C@@H](NC(=O)c1cccc2ccccc12)C(=O)Nc1ccccc1Oc1ccccc1 [AOH1160DE]
IC50 [1]: > 10 µM

COc1cccc(Oc2ccccc2NC(=O)CNC(=O)CCc2cccc3ccccc23)c1 [AOH1996eeNph, N-(2-((2-(3-methoxyphenoxy)phenyl)amino)-2-oxoethyl)-3-(naphthalen-1-yl) propanamide]
IC50 [1]: > 10 µM

O=C(CNC(=O)c1cccc2ccccc12)Nc1ccccc1Sc1cccc(C(F)(F)F)c1 [AOH1996S-3CF3, N-(2-oxo-2-((2-((3-(trifluoromethyl)phenyl)thio)phenyl)amino)ethyl)-1-naphthamide]
IC50 (OVCAR8): 2.6 µM | IC50 (RKO): 8 µM | IC50 (HTC-116): 4.6 µM

O=C(CNC(=O)c1cccc2ccccc12)Nc1ccccc1C(=O)Nc1ccccc1 [AOH1160-2AB, N-(2-oxo-2-((2-(phenylcarbamoyl)phenyl)amino)ethyl)-1-naphthamide]
IC50 [1]: > 10 µM

Cc1ccccc1Oc1ccccc1NC(=O)CNC(=O)c1cccc(C)c1C [AOH-DMB-2CH3, 2,3-dimethyl-N-(2-oxo-2-((2-(o-tolyloxy)phenyl)amino)ethyl)benzamide]
IC50 (SK-N-BE(2)c): 1.03 µM | IC50 (SK-N-AS): 1.12 µM

NCCCC[C@H](NC(=O)c1cccc2ccccc12)C(=O)Nc1ccccc1Oc1ccccc1 [AOH1160LK]
IC50 [1]: > 10 µM
